We go through three compounds from patent publication US20240408077A1, “ATM KINASE INHIBITORS FOR USE IN THE TREATMENT OF NEUROLOGICAL CONDITIONS” (The University of Birmingham, priority 2021, published 2024).

Data set [1] addresses T1, phosphorylated ATM (pATM) (Rattus norvegicus, UniProt D4ACL8).
T1 construct: Total protein was extracted from DRGN cultures and fresh DRG tissues; endogenous in cells; host or cells: primary adult rat dorsal root ganglion neurons
Kind of data set: pATM levels in DRGN cultures, western blot and densitometry. The data set is classed as cell-based. How it is done:
Primary adult rat DRGN cultures were prepared as described by us previously (11). DRGN were dissociated using collagenase and cultured in supplemented Neurobasal-A (#10888022; NBA) containing B27 supplement (#17504044), L-glutamine (#25030081) and gentamicin (#15710064) (all from Invitrogen, Paisley, UK) at a plating density of 500/well in 8-well chamber slides (#C6932; Beckton Dickinson, Oxford, UK) pre-coated with 100 μg/ml poly-D-lysine (#P6407; Sigma, Poole, UK). […] Sigma) at 30 μM (11). […] Positive controls included pre-optimized fibroblast growth factor-2 (FGF-2) (#100-18C, Peprotech, London, UK; 10 ng/ml (11)). Cells were cultured for 4 days in a humidified chamber at 37° C. and 5% CO2 before being subjected to immunocytochemistry, as described below. Treatments were added in triplicate and repeated on 3 independent occasions (i.e. total n=9 wells/treatment) by an investigator masked to the treatment conditions. […] Tocris, Oxford, UK) were dissolved in DMSO (Sigma, Poole, UK) at stock concentrations of 10 mM for in vitro use. […] After a protein assay using the Bradford Assay Kit (#5000001; […] Proteins were then transferred onto PVDF membranes (#1EVH00005, Merck, Gillingham, UK), blocked in non-fat milk and incubated with rabbit anti-pATM ([…]) antibody (#13050, 1:200 dilution, Cell Signalling Technology, London, UK) overnight at 4° C. Membranes were then washed in Tris buffered saline (TBS) and incubated with appropriate mouse/rabbit HRP-labelled secondary antibody (#GENA934; 1:1000 dilution, GE Healthcare, Buckinghamshire, UK) and bands detected using an enhanced chemiluminescence kit (#RPN2108, GE Healthcare). Rabbit anti-β-actin antibody (#ZRB1312, 1:1000; Sigma) was used as a loading control for western blots. For densitometry, western blots were scanned into Adobe Photoshop (Adobe Systems, San Jose, CA, USA) keeping all scanning parameters the same between each blot and densitometrically analysed using the built-in gel plotting macros in ImageJ ([…].gov), as previously described (7).

The next data set has as its system primary adult rat DRGN. Put plainly: DRGN survival and neurite outgrowth in the presence of CNS myelin extracts. To be noted: with CME. The data set is classed as cell-based. As for the experimental part: Primary adult rat DRGN cultures were prepared as described by us previously (11). DRGN were dissociated using collagenase and cultured in supplemented Neurobasal-A (#10888022; NBA) containing B27 supplement (#17504044), L-glutamine (#25030081) and gentamicin (#15710064) (all from Invitrogen, Paisley, UK) at a plating density of 500/well in 8-well chamber slides (#C6932; Beckton Dickinson, Oxford, UK) pre-coated with 100 μg/ml poly-D-lysine (#P6407; Sigma, Poole, UK). Glial cell proliferation was inhibited in cultures using 5-fluoro-2-deoxyuridine (5-FDU; #343333; Sigma) at 30 μM (11). […] Positive controls included pre-optimized fibroblast growth factor-2 (FGF-2) (#100-18C, Peprotech, London, UK; 10 ng/ml (11)). Cells were cultured for 4 days in a humidified chamber at 37° C. and 5% CO2 before being subjected to immunocytochemistry, as described below. Treatments were added in triplicate and repeated on 3 independent occasions (i.e. total n=9 wells/treatment) by an investigator masked to the treatment conditions.
DRGN were fixed in 8-well chamber slides in situ using 4% paraformaldehyde before being subjected to immunocytochemistry with rabbit anti-βIII tubulin antibodies (#T3952; 1:200 dilution; Sigma) to detect DRGN soma and neurites, as described previously (11). Alexa-488 goat […] IgG (#A32723; 1:400 dilution; ThermoFisher, Leicester, UK) secondary antibodies were used to visualize DRGN soma and neurites using an Axioplan 2 epifluorescent microscope equipped with an AxioCam HRc and running Axiovision Software (all from Carl Zeiss, Hertfordshire, UK).
With the investigator masked to the treatment conditions, the proportion of βIII-tubulin^+ DRGN, the number of DRGN with neurites and the longest DRGN neurite length were all calculated using Axiovision Software, as described by us previously (11).

The target in a further data set is T2, pATM (pSer 1981) (Mus musculus, UniProt Q62388).
T2 construct: L4/L5 DRG pairs were dissected out and snap frozen in liquid nitrogen; from tissue; host or cells: mouse L4/L5 dorsal root ganglia, 4 weeks after DC crush injury
Put plainly: pATM levels in DRG after DC crush injury, western blot and densitometry. The data set is classed as in vivo, mice. The settings on record: for pATM (pSer 1981) levels: oral 20 mg/kg once daily, DRG at 4 weeks after DC injury; for pATM inhibition in DRGN from SCI treated animals: oral, doses up to 100 mg/kg. As for the experimental part: Mice were subcutaneously injected with Buprenorphine and anaesthetized using 5% isoflurane and 1.8 l/min O2. After a partial laminectomy at T8, DC were crushed bilaterally using calibrated watchmaker's forceps as described by us previously (12). Animals were dosed immediately after injury and allowed to recover in their home cage. Drugs were given every 24 hours for the duration of each experiment.
For western blot, animals were killed at 4 weeks and tissues harvested as described below. For immunohistochemistry and behavioural analysis, animals were treated up to 6 weeks after DC injury.
Methods for tissue harvesting have been described by us previously (7, 12). Briefly, for western blot analysis: animals were killed by rising concentrations of CO2 and L4/L5 DRG pairs were dissected out and snap frozen in liquid nitrogen and stored at −80° C. until required (7). For immunohistochemistry: animals were killed in rising concentrations of CO2 and intracardially perfused with 4% paraformaldehyde (7, 12). The SCI site+5 mm either side of the lesion center was dissected out and postfixed in 4% formaldehyde for 2 hr, followed by cryoprotection in a graded series of sucrose and embedded in optimal temperature cutting medium (#12678646, ThermoFisher). Sections were cut at 15 μm-thick stored at −80° C. until required.
Total protein was extracted from DRGN cultures and fresh DRG tissues as described by us previously (7, 12). Briefly, cultures/DRG tissues were washed in PBS and total protein extracted in ice-cold lysis buffer containing 20 mM HEPES, 1 mM EDTA, 150 mM NaCl, 1% NP-40 and 1 mM DTT and supplemented with protease (#P8340) and phosphatase inhibitor cocktails (#P5726) (all from Sigma). After a protein assay using the Bradford Assay Kit (#5000001; BioRad, Watford, UK), 15 μg of total protein was separated on 12% Tris-glycine SDS-PAGE gels. Proteins were then transferred onto PVDF membranes (#1EVH00005, Merck, Gillingham, UK), blocked in non-fat milk and incubated with rabbit anti-pATM (ser1981) antibody (#13050, 1:200 dilution, Cell Signalling Technology, London, UK) overnight at 4° C. Membranes were then washed in Tris buffered saline (TBS) and incubated with appropriate mouse/rabbit HRP-labelled secondary antibody (#GENA934; 1:1000 dilution, GE Healthcare, Buckinghamshire, UK) and bands detected using an enhanced chemiluminescence kit (#RPN2108, GE Healthcare). Rabbit anti-β-actin antibody (#ZRB1312, 1:1000; Sigma) was used as a loading control for western blots.
For densitometry, western blots were scanned into Adobe Photoshop (Adobe Systems, San Jose, CA, USA) keeping all scanning parameters the same between each blot and densitometrically analysed using the built-in gel plotting macros in ImageJ (ww.nihimage.nih.gov), as previously described (7).

The test system of another data set is DC axons. The class given is in vivo, mice. To be noted: oral 20 mg/kg once daily; for DC axon regeneration through the lesion site: 6 weeks after injury.
Data set [2] has as its system DC injury model of SCI. Kind of data set: electrophysiology, compound action potentials across the lesion site after DC injury. The settings on record: oral, 6 weeks after DC injury. The data set is classed as in vivo, mice. As for the experimental part: Mice were subcutaneously injected with Buprenorphine and anaesthetized using 5% isoflurane and 1.8 l/min O2. After a partial laminectomy at T8, DC were crushed bilaterally using calibrated watchmaker's forceps as described by us previously (12). Animals were dosed immediately after injury and allowed to recover in their home cage. Drugs were given every 24 hours for the duration of each experiment. […] Spike 2 software (Cambridge Electronic Design, Cambridge, UK) was used to process and analyse the traces and determine the CAP amplitude and CAP area for each condition.

Data set [3] relates to DC injury model of SCI. Kind of data set: tape sensing and removal test (sensory function) after DC injury. The class given is in vivo, mice. To be noted: oral; for tape sensing and removal time: over 6 weeks after DC injury, versus controls. How it is done:
(§1) Mice were subcutaneously injected with Buprenorphine and anaesthetized using 5% isoflurane and 1.8 l/min O2. After a partial laminectomy at T8, DC were crushed bilaterally using calibrated watchmaker's forceps as described by us previously (12). Animals were dosed immediately after injury and allowed to recover in their home cage. Drugs were given every 24 hours for the duration of each experiment. Tape sensing and removal and horizontal ladder crossing tests were used to detect sensory and locomotor changes after DC injury and treatment as described by us previously (7). Briefly, tape sensing and removal was tested by attaching a 15/15 mm piece of sticky tape (Kip Hochkrepp, Bocholt, Germany) onto the plantar surface of each the left paw of each mouse and recording the time taken to detect and remove the tape. For the ladder crossing test, each mouse was trained prior to DC injury to master the traversing the ladder (0.9 m long and 15.5 cm wide with randomly adjusted rungs). Animals were assessed crossing the ladder and the total number of steps and the number of left and right hind paw slips were recorded and presented as an error ratio. All of these tests were performed at 2 days after injury, then at 1 week followed by weekly tests for 6 weeks. The experimenter was masked to the treatment conditions and animals were assessed in the same order and time of day with each test performed for 3 individual trials on each occasion.

Data set [4] deals with DC injury model of SCI. Kind of data set: horizontal ladder crossing test (locomotor function) after DC injury. The data set is classed as in vivo, mice. The settings on record: oral; for locomotor function, ladder crossing: over 6 weeks after DC injury. How it is done: as §1
Data set [5] has as its target T3, ATM (Homo sapiens, UniProt Q13315). To be noted: read-out: cell IC50; cited from earlier work.
Data set [6] has as its system kinases within the same family. The settings on record: cited from earlier work.
The conditions of data set [7]: after oral administration; cited from earlier work.
The subject of a further data set is brain gliomas. To be noted: in combination with daily ionizing radiation therapy; cited from earlier work.
For data set [8], the target named is T3, ATM. To be noted: cited from earlier work.
For another data set, the system named is γH2Ax+ foci. To be noted: twice weekly injections directly into the CSF, cited from earlier work.
Where [9] appears, read: 5 nM, compared to vehicle-treated DRGN.

Like-named read-outs stand apart in the source and are kept apart here.

T1 sequence (D4ACL8 1-3064): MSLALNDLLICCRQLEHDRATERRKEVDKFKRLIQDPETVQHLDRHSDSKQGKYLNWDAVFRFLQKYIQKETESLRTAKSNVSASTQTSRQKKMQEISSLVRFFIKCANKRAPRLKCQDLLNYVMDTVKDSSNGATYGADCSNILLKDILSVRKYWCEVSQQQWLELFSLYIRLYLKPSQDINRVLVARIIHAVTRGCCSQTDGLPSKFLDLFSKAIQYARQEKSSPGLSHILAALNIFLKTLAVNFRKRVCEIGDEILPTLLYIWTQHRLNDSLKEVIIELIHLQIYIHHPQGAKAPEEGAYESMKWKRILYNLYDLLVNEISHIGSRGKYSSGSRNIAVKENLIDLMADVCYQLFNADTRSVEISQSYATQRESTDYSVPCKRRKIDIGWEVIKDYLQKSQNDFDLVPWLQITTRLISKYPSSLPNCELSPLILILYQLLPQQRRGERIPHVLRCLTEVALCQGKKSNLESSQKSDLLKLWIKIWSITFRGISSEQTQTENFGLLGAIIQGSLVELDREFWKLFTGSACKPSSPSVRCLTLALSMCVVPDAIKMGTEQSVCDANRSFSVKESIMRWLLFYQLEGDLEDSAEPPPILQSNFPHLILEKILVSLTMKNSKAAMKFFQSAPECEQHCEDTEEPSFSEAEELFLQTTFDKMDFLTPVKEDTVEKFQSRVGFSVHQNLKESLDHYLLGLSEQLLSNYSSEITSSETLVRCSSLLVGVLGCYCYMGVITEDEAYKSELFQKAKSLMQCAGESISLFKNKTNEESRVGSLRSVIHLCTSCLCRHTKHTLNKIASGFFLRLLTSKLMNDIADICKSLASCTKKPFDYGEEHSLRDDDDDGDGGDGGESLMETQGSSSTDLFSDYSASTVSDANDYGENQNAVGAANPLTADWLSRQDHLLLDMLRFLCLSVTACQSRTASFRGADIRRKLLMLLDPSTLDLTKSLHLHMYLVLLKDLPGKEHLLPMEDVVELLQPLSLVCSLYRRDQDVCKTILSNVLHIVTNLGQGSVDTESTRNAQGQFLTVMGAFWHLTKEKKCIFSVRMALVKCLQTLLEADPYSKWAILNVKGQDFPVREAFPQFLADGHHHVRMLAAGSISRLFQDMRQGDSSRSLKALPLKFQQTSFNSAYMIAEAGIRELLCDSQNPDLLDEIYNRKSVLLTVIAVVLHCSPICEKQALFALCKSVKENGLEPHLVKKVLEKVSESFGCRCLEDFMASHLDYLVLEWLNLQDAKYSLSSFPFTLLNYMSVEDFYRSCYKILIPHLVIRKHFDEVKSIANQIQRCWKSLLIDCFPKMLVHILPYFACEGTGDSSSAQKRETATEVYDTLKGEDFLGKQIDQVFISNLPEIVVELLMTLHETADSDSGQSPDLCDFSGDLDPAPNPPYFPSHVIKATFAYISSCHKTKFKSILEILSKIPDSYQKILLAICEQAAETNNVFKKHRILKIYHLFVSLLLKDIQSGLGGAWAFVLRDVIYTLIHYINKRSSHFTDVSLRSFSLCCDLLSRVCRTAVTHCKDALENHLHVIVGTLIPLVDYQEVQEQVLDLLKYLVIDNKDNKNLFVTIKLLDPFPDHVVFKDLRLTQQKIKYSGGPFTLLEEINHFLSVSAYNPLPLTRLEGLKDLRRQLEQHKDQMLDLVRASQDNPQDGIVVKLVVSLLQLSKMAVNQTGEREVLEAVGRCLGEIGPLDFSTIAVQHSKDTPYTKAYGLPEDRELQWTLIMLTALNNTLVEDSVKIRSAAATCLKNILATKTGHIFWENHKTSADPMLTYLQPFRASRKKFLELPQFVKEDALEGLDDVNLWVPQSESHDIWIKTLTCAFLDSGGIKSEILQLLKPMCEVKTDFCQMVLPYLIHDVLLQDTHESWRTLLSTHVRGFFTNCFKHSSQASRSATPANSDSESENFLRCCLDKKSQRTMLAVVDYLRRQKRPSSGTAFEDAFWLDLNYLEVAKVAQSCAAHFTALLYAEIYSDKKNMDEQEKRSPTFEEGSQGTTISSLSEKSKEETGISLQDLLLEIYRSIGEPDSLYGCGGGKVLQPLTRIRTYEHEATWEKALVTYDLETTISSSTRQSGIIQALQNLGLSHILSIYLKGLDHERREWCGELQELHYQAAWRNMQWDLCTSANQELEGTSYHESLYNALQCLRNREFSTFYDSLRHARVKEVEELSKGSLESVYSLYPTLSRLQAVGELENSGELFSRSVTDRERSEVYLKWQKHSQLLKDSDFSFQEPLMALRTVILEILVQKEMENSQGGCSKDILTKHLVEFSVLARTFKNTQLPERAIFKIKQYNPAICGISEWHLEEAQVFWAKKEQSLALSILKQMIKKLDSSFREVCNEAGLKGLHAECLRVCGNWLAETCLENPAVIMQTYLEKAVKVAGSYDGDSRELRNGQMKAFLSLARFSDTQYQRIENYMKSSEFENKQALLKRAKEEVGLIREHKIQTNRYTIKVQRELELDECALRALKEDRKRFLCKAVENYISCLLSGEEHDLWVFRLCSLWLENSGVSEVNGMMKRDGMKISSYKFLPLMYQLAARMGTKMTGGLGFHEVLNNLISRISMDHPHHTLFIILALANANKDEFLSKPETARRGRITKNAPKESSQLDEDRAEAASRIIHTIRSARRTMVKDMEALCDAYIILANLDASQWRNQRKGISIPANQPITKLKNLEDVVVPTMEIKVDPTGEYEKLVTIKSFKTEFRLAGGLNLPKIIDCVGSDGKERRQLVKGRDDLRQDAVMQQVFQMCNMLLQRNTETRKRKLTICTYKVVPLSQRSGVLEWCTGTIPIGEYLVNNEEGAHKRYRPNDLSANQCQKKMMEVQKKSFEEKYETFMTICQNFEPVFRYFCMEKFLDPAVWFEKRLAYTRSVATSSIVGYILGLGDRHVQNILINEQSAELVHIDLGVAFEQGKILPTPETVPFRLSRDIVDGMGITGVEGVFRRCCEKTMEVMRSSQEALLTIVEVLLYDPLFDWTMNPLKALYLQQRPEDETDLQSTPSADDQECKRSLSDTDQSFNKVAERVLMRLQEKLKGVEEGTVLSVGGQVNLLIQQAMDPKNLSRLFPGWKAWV

In the case of `CC(C)n1c(=O)n(C)c2cnc3ccc(-c4ccc(OCCCN5CCCCC5)nc4F)cc3c21` [AZD1390, 8-[2-Fluoro-6-[3-(I-piperidyl)propoxy]-3-pyridyl]-1-isopropyl-3-methyl-imidazo[4,5-c]quinolin-2-one], the “reduction of pATM levels” value in data set [1] (5 nM, compared to vehicle-treated (0 nM) cultures) is on record as 70%. Further, in [1] (concentrations 1-10 nM tested), the “lowest most effective dose for reduction of pATM levels” value is on record as 5 nM. In addition, in the data set on primary adult rat DRGN (setting [9]), the “increase of DRGN survival” value came to 60%, the “increase of longest neurite length” value was determined as 81% and the “increase of percentage of DRGN with neurites” value is 88%. The “pATM (pSer 1981) levels” value on pATM (pSer 1981) was “significant suppression”. Further, the “DC axon regeneration through the lesion site” value in the data set with DC axons was “promoted DC axon regeneration through the lesion site and into the rostral cord”. For the same compound, the “axons regenerating beyond the lesion site” value with DC axons (up to 1 mm beyond the lesion site, compared to vehicle-treated mice) is on record as “up to 12%”. Further, in the data set with DC injury model of SCI [2], the CAP amplitudes entry is on record as “significantly improved”, the CAP areas entry is “significantly improved” and the CAP trace result is on record as “return of a significant CAP trace”. The “time for sensory function to return to baseline of sham-uninjured animals” value in the data set with DC injury model of SCI [3] (after injury) is given as at most 4 weeks. Moreover, in the data set on DC injury model of SCI [3], the “tape sensing and removal time” value is “significantly shorter time than controls”. In the data set on DC injury model of SCI [4], the “time to recover to sham-uninjured control levels, ladder crossing” value is given as at most 4 weeks and the “locomotor function, ladder crossing” value is reported as “marked improvement”. On ATM [5], the IC50 was 0.78 nM. For the same compound, the “selectivity over kinases within the same family” value in [6] is listed as > 10,000 fold. Further, the “time bioavailable in the brain” value in data set [7] was “at least 8 hours”. In addition, the “tumor response and survival” value in the data set on brain gliomas was “induced tumor regression and prolonged survival”. Besides, the IC50 at ATM [8] was 0.5 to 3 nM.
In the case of `C[C@@H]1CN(CC(=O)Nc2ccc3c(c2)Cc2cccc(-c4cc(=O)cc(N5CCOCC5)o4)c2S3)C[C@H](C)O1` [KU-60019], in [1], the “ATM activation in vitro” value is given as “able to suppress ATM activation in vitro”. The “suppression of pATM levels” value at pATM (pSer 1981) (intrathecal delivery after injury) was found to be 81%. Moreover, the “pATM (pSer 1981) levels” value on pATM (pSer 1981) is listed as “no effect”. Further, the “pATM inhibition in DRGN from SCI treated animals” value is reported as “no pATM inhibition” on pATM (pSer 1981) and “no effect” at pATM (pSer 1981) (listed as KU6000-19). In addition, in the data set on DC axons, the “DC axon regeneration through the lesion site” value is “not oral KU-60019 promoted DC axon regeneration”. In addition, the “tape sensing and removal time” value in the data set on DC injury model of SCI [3] is listed as “no effect”. For the same compound, the “locomotor function, ladder crossing” value with DC injury model of SCI [4] is reported as “a significant deficit remained”. Also, in the data set with γH2Ax+ foci (after SCI), the “γH2Ax+ foci” value is “reduced”. In addition, in the data set with γH2Ax+ foci, the “functional recovery after SCI” value is given as “promoted significant functional recovery”.
As for “FGF-2: fibroblast growth factor-2, positive control (Peprotech), 10 ng/ml”, the “DRGN survival and neurite outgrowth in comparison with AZD1390” value in the data set with primary adult rat DRGN (FGF-2 10 ng/ml positive control, KU-60019 at concentrations of a recent study) is “inferior compared to AZD1390”.
